Data as given in patent US20040224981A1, “Antibacterial methods and compositions” (priority 2003, published 2004).
Where two headings read alike, the source gives them in different places.

Assays:
S. aureus = assay: MIC against S. aureus strains and clinical isolates (broth microdilution); assay type: cell-based, Staphylococcus aureus; settings: for MIC50: read-out: MIC50
Procedure, shortened: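 Broth microdilution per NCCLS in cation-supplemented Mueller-Hinton broth, final inoculum 5×10^5 CFU/ml from 0.5 McFarland suspensions diluted 1:10. Trays incubated aerobically overnight with quality control strains each run. Checkerboard FIC index: ≦0.5 synergy, >0.5 to 4 additive/indifferent, >4.0 antagonism.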

S. pyogenes = assay: MIC against S. pyogenes; assay type: cell-based, Streptococcus pyogenes
Procedure: The MRS inhibitor 4 alone and in combination with mupirocin (mupirocin salt and 1:1 combination) were tested against a collection of Gram-positive pathogens.
S. pyogenes is also a significant skin pathogen and 48 recent clinical isolates were tested for their susceptibility to MRSi compound 5 alone (acetate) and in combination (1:1) with mupirocin (mupirocinate).

[1] = system: MRS-resistant mutants of S. aureus; assay: Susceptibility (MIC) of MRS-resistant mutants of S. aureus; assay type: cell-based; settings: Staphylococcus aureus
Procedure: MRS-resistant mutants generated in vitro in either serial passage or spontaneous resistance development studies were evaluated for susceptibility to mupirocin alone and in a 1:1 combination with MRSi compound 5.

[2] = 48 recent clinical isolates of S. pyogenes

C/C(=C\C(=O)OCCCCCCCCC(=O)O)C[C@@H]1OC[C@H](C[C@@H]2O[C@H]2[C@@H](C)[C@H](C)O)[C@@H](O)[C@H]1O [Mupirocin, Pseudomonic acid A]
MIC (S. aureus; Staphylococcus aureus, S. aureus 87-2797 (HL Mup. Rest.), read-out: MIC): > 64 µg/mL
MIC (S. aureus; Staphylococcus aureus, S. aureus 87-2797 (Mup. Susc.), read-out: MIC): 0.25 µg/mL
MIC (S. aureus; Staphylococcus aureus, S. aureus 101-100 (Mup. Susc.), read-out: MIC): < 0.06 µg/mL
MIC (S. aureus; Staphylococcus aureus, S. aureus LZ1 (HL Mup rest.), read-out: MIC): > 64 µg/mL
MIC (S. aureus; Staphylococcus aureus, S. aureus LZ6 (HL Mup rest.), read-out: MIC): > 64 µg/mL
MIC (S. aureus; Staphylococcus aureus, S. aureus LZ8 (LL Mup. Rest.), read-out: MIC): 32 µg/mL
MIC (S. aureus; Staphylococcus aureus, S. aureus LZ9, read-out: MIC): 0.25 µg/mL
MIC (S. aureus; Staphylococcus aureus, S. aureus LZ10, read-out: MIC): 0.25 µg/mL
MIC (S. aureus; Staphylococcus aureus, S. aureus Miles Hall, read-out: MIC): 64 µg/mL
MIC (S. aureus; Staphylococcus aureus, S. aureus Oxford, read-out: MIC): 0.12 µg/mL
MIC (S. aureus; Staphylococcus aureus, Table 6, S. aureus (mupirocin-susceptible) 010-100, read-out: MIC): 0.06 µg/mL
MIC (S. aureus; Staphylococcus aureus, Table 6, S. aureus (mupirocin-susceptible) 087-2789, read-out: MIC): 0.12 µg/mL
MIC (S. aureus; Staphylococcus aureus, Table 6, S. aureus (mupirocin-susceptible) LZ9, read-out: MIC): 0.12 µg/mL
MIC (S. aureus; Staphylococcus aureus, Table 6, S. aureus (mupirocin-susceptible) LZ10, read-out: MIC): 0.12 µg/mL
MIC (S. aureus; Staphylococcus aureus, Table 6, high-level mupirocin-resistant S. aureus 010-420, read-out: MIC): > 256 µg/mL
MIC (S. aureus; Staphylococcus aureus, Table 6, high-level mupirocin-resistant S. aureus 25-670, read-out: MIC): > 256 µg/mL
MIC (S. aureus; Staphylococcus aureus, Table 6, high-level mupirocin-resistant S. aureus 87-2797, read-out: MIC): > 256 µg/mL
MIC (S. aureus; Staphylococcus aureus, Table 6, high-level mupirocin-resistant S. aureus 1079101, read-out: MIC): > 256 µg/mL
MIC (S. aureus; Staphylococcus aureus, Table 6, high-level mupirocin-resistant S. aureus LZ1, read-out: MIC): > 256 µg/mL
MIC (S. aureus; Staphylococcus aureus, Table 6, high-level mupirocin-resistant S. aureus LZ6, read-out: MIC): > 256 µg/mL
MIC (S. aureus; Staphylococcus aureus, Table 6, low-level mupirocin-resistant S. aureus 014-354, read-out: MIC): 16 µg/mL
MIC (S. aureus; Staphylococcus aureus, Table 6, low-level mupirocin-resistant S. aureus 031-1334, read-out: MIC): 16 µg/mL
MIC (S. aureus; Staphylococcus aureus, Table 6, low-level mupirocin-resistant S. aureus 036-1298, read-out: MIC): 16 µg/mL
MIC (S. aureus; Staphylococcus aureus, Table 6, low-level mupirocin-resistant S. aureus 1081148, read-out: MIC): 16 µg/mL
MIC (S. aureus; Staphylococcus aureus, Table 6, low-level mupirocin-resistant S. aureus LZ8, read-out: MIC): 16 µg/mL
MIC (S. aureus; Staphylococcus aureus, Table 6, low-level mupirocin-resistant S. aureus Miles Hall, read-out: MIC): 32 µg/mL
MIC (S. aureus; Staphylococcus aureus, VISA, three of the VISA isolates (poor activity), read-out: MICs): > 8 µg/mL
MIC50 (S. aureus; Staphylococcus aureus, all S. aureus isolates of Table 6): 32 µg/mL
MIC90 (S. aureus; Staphylococcus aureus, all S. aureus isolates of Table 6, read-out: MIC90): > 256 µg/mL
MIC90 (S. aureus; Staphylococcus aureus, all S. aureus strains of Table 1, read-out: MIC 90): > 64 µg/mL
MIC50 (S. aureus; Staphylococcus aureus, oxacillin-resistant S. aureus, Oxa-R (42)): 0.12 µg/mL
MIC90 (S. aureus; Staphylococcus aureus, oxacillin-resistant S. aureus, Oxa-R (42), read-out: MIC90): > 8 µg/mL
MIC (S. aureus; Staphylococcus aureus, oxacillin-resistant S. aureus, Oxa-R (42), read-out: MIC Mode): 0.12 µg/mL
MIC50 (S. aureus; Staphylococcus aureus, oxacillin-susceptible S. aureus, Oxa-S (20)): 0.12 µg/mL
MIC90 (S. aureus; Staphylococcus aureus, oxacillin-susceptible S. aureus, Oxa-S (20), read-out: MIC90): > 8 µg/mL
MIC (S. aureus; Staphylococcus aureus, oxacillin-susceptible S. aureus, Oxa-S (20), read-out: MIC Mode): 0.12 µg/mL
MIC50 (S. aureus; Staphylococcus aureus, recent clinical isolates of S. aureus, All (62)): 0.12 µg/mL
MIC90 (S. aureus; Staphylococcus aureus, recent clinical isolates of S. aureus, All (62), read-out: MIC90): > 8 µg/mL
MIC (S. aureus; Staphylococcus aureus, recent clinical isolates of S. aureus, All (62), read-out: MIC Mode): 0.12 µg/mL
MIC (S. aureus; Table 12, S. aureus 25-670, high level mupirocin-resistant, agent alone): >128 8 g/mL
MIC50 (S. pyogenes; [2]): 0.12 µg/mL
MIC90 (S. pyogenes; [2]): 0.25 µg/mL
Mode (MIC) (S. pyogenes; [2]): 0.12 µg/mL
MIC Range (S. pyogenes; 48 recent clinical isolates of S. pyogenes, in µg/mL): 0.03-0.5
MIC (S. pyogenes; Streptococcus pyogenes, ATCC19615, Table 2, S. pyogenes ATCC 19615, read-out: MIC): 0.12 µg/mL
MIC (S. pyogenes; Streptococcus pyogenes, Table 2, S. pyogenes MB143 (macrolide rest.), read-out: MIC): 0.12 µg/mL
MIC (S. pyogenes; Table 3, S. pyogenes ATCC 19615): 0.12 µg/mL
MIC (S. pyogenes; Table 3, S. pyogenes MB143 (macrolide rest.)): 0.12 µg/mL
MIC (S. pyogenes; Table 4, S. pyogenes ATCC 19615): 0.12 µg/mL
MIC (S. pyogenes; Table 4, S. pyogenes MB000143): 0.12 µg/mL
MIC ([1]; ATCC29213, S. aureus ATCC 29213, metS wild-type): 0.12 µg/mL
MIC ([1]; S. aureus SP-9B5, metS I57N, V296F): 0.5 µg/mL
MIC ([1]; S. aureus SP-21A, metS A77V): 1 µg/mL
MIC ([1]; read-out: MICs ranging, all the MRS-resistant mutants): 0.12 to 1 µg/mL
